Measured values published in publication PMC3298571 (Bioorganic & medicinal chemistry, 2012).
“Also recorded” adds a separate entry of the source. Marks after values point to notes of the source that are not given here.

Legend:
Male ICR mice [1] = conditions: mouse; cited from earlier work
Male ICR mice [2] = conditions: mouse; cited from earlier work; remark: listed apart in the source
Male ICR mice [3] = conditions: mouse; cited from earlier work; remark: listed apart in the source
Male ICR mice [4] = conditions: mouse; cited from earlier work; remark: listed apart in the source
CB2 receptor = conditions: read-out: Ki CB2; cited from earlier work
CB1 receptor [5] = conditions: read-out: Ki CB1; cited from earlier work
CB1 receptors = conditions: [35S]GTPγS binding assay; cited from earlier work
mice [6] = conditions: cited from earlier work
mice [7] = conditions: cited from earlier work; remark: listed apart in the source
CB1 receptor [8] = molecular target: CB1 receptor (Homo sapiens, UniProt P21554); experiment: [35S]GTPγS binding assay; assay type: biochemical
Chain of CB1 receptor (Homo sapiens, UniProt P21554) (P21554 whole entry): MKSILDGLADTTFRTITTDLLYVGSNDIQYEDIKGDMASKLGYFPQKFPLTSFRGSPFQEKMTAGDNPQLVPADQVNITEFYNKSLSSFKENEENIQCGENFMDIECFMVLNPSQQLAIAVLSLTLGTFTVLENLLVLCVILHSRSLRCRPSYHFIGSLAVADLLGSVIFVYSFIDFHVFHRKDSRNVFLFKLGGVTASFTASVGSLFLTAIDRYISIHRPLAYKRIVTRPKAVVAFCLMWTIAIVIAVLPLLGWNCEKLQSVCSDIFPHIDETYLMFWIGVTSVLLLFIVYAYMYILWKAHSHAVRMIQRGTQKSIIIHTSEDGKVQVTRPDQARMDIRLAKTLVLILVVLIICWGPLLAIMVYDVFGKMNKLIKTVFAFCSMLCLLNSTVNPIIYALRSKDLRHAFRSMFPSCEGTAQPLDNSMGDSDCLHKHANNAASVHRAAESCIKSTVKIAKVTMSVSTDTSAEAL

mice [9] = experiment: Rimonabant antagonism of tetrad effects in mice; assay type: in vivo, mouse; conditions: 3 mg/kg rimonabant, 30 mg/kg JWH-415

## CCCn1c(C)c(C(=O)c2cccc3ccccc23)c2ccccc21 [JWH-015, 1-propyl-2-methyl-3-(1-naphthoyl)indole]
Male ICR mice [1]
  ED50 TF: 84.7^e μmol / kg
Male ICR mice [2]
  ED50 RI: 87.2^e μmol / kg
Male ICR mice [3]
  ED50 RT: 99.1^e μmol / kg
Male ICR mice [4]
  ED50 SA: 18.7^e μmol / kg

## CCCCCn1cc(C(=O)c2cccc3ccccc23)c2ccccc21 [JWH-018, 1-pentyl-3-(1-naphthoyl)indole]
CB2 receptor
  Ki: 2.9 ± 2.6 nM
Male ICR mice [1]
  ED50 TF: 0.09^e μmol / kg
Male ICR mice [3]
  ED50 RT: 1.7^e μmol / kg
Male ICR mice [4]
  ED50 SA: 0.44^e μmol / kg
CB1 receptor [5]
  Ki: 9 ± 5 nM

## C=C1CC[C@@H]2[C@@H](C1)c1ccc(C(C)(C)CCCCCC)cc1OC2(C)C [JWH-104, deoxy-Δ^9(11)-THC-dimethylheptyl]
CB1 receptors
  Efficacy at CB1 receptors: low efficacy agonist
CB1 receptor [5]
  Ki: 909 nM
Mice [6]
  Effect of rimonabant on cannabimimetic effects in the battery of mouse tests: blocked by rimonabant
Mice [7]
  Substitution for THC in drug discrimination: did not substitute for THC

## CCCCCn1c(C)c(C(=O)c2ccc(CC)c3ccccc23)c2ccccc21 [JWH-213]
CB2 receptor
  Ki: 0.42 ± 0.05 nM
CB1 receptor [5]
  Ki: 1.5 ± 0.2 nM

## CCCn1c(C)c(C(=O)c2ccc(F)c3ccccc23)c2ccccc21 [JWH-415, 2-Methyl-1-propyl-3-(4-fluoro-1-naphthoyl)indole]
CB1 receptor [8]
  Efficacy at the CB1 receptor: low efficacy agonist
Mice [9]
  Effect of rimonabant on tetrad effects: blocked or partially blocked; also recorded: rimonabant-reversible activity

## Cc1c(C(=O)c2cccc3ccccc23)c2cccc3c2n1[C@H](CN1CCOCC1)CO3 [WIN-55,212-2]
Male ICR mice [1]
  ED50 TF: 0.94^c μmol / kg
Male ICR mice [4]
  ED50 SA: 0.23^c μmol / kg
